Numbered stars: 1 amine (or outer) side, 2 acyl side, 3 side chain; on linkers, the order of the positions; unused ones are H or OH. Square brackets hold non-standard residues; d marks the D form. Side chains are listed from the residue outwards. Peptide text beside a SMILES is read from it. * marks the point of attachment. C18 diacid = O=C(O)CCCCCCCCCCCCCCCCC(=O)*; γGlu = O=C(O)[C@H](CCC(=O)[*:2])N[*:1]; AEEA = NCCOCCOCC(=O)O; Aib = CC(C)(N)C(=O)O
Test: Pharmacokinetic evaluation in minipigs
Type: in vivo
Details: female, Göttingen, minipig, plasma
Procedure: Compounds were administered in a suitable buffer system, e.g. PBS buffer solution at pH7.4 or DPBS solution at concentrations of 0.05, 0.1, 0.5 or 1 mg/ml depending on dose, species and administration volume.
Female Göttingen minipigs were dosed 0.05 mg/kg intravenously (i.v.) or 0.1 mg/kg subcutaneously (s.c.). Blood samples were collected at 0 h and after 0.083, 0.25, 0.5, 1, 2, 4, 8, 24, 32, 48, 56, 72, 80, and 96 h post i.v. application and at 0 h and after 0.25, 0.5, 1, 2, 4, 8, 24, 32, 48, 56, 72, 80, and 96 h post s.c. application, respectively. Plasma samples were analysed after protein precipitation via liquid chromatography mass spectrometry (LC/MS). PK parameters and half-life were calculated using Phoenix-WinNonlin 8.1 using a non-compartmental model and linear trapezoidal interpolation calculation.
Pharmacokinetic profiles were determined as described in Methods.

CC[C@H](C)[C@H](NC(=O)[C@H](CCC(=O)O)NC(=O)[C@H](CCC(=O)O)NC(=O)[C@H](CCCCNC(=O)COCCOCCNC(=O)COCCOCCNC(=O)CC[C@H](NC(=O)CCCCCCCCCCCCCCCCC(=O)O)C(=O)O)NC(=O)C(C)(C)NC(=O)[C@@H](NC(=O)[C@H](CO)NC(=O)[C@H](CC(C)C)NC(=O)[C@H](CC(=O)O)NC(=O)[C@H](CO)NC(=O)[C@@H](NC(=O)[C@H](Cc1ccccc1)NC(=O)[C@@H](NC(=O)CNC(=O)[C@H](CCC(=O)O)NC(=O)C(C)(C)NC(=O)[C@@H](N)Cc1ccc(O)cc1)[C@@H](C)O)[C@@H](C)CC)[C@@H](C)CC)C(=O)N[C@@H](Cc1c[nH]cn1)C(=O)N[C@@H](CCC(N)=O)C(=O)NC(C)(C)C(=O)N[C@@H](CCC(=O)O)C(=O)N[C@@H](Cc1ccccc1)C(=O)N[C@H](C(=O)N[C@@H](CCC(=O)O)C(=O)N[C@@H](Cc1c[nH]c2ccccc12)C(=O)N[C@@H](CC(C)C)C(=O)N[C@@H](CC(C)C)C(=O)N[C@@H](C)C(=O)N[C@@H](CCC(N)=O)C(=O)NCC(=O)N1CCC[C@H]1C(=O)N[C@@H](CO)C(=O)N[C@@H](CO)C(=O)NCC(=O)N[C@@H](C)C(=O)N1CCC[C@H]1C(=O)N1CCC[C@H]1C(=O)N1CCC[C@H]1C(=O)N[C@@H](CO)C(N)=O)[C@@H](C)CC [SEQ ID NO: 19, H2N-Y-Aib-E-G-T-F-I-S-D-L-S-I-Aib-K[{AEEA}2-gGlu-C18OH]-E-E-I-H-Q-Aib-E-F-I-E-W-L-L-A-Q-G-P-S-S-G-A-P-P-P-S-NH2] (H-Y[Aib]EGTFISDLSI[Aib]K([AEEA-AEEA-γGlu-C18 diacid])EEIHQ[Aib]EFIEWLLAQGPSSGAPPPS-NH2)
AUC(0-t) (iv, 0.05 mg/kg i.v.): 50500 ng·h/mL
Cmax (iv, 0.05 mg/kg i.v.): 1980 ng/mL
clearance (iv, 0.05 mg/kg i.v.): 15.4 mL/day/kg
half-life (iv, 0.05 mg/kg i.v.): 64.1 h
AUC(0-t) (sc, 0.1 mg/kg s.c.): 56800 ng·h/mL
Cmax (sc, 0.1 mg/kg s.c.): 723 ng/mL
bioavailability (sc, 0.1 mg/kg s.c.): 56%

Reference: patent publication US20240360194A1, “New Peptides as Potent and Selective GIP Receptor Agonists” (Sanofi, priority 2021, published 2024)
